Ki data for 24 compounds are collected here from patent publication US9346786B2, “Pyrrolidine compounds” (Hoffmann-La Roche Inc., priority 2009, dated 2016).

The first experiment deals with recombinant human NK3 receptor (Homo sapiens (Human), UniProt P29371). Nature of the experiment: biochemical. The following applies: [3H]SR142801, membranes of HEK293 cells transiently expressing recombinant human NK3 receptor; read-out: Data Ki (hNK-3 receptor affinity). The experiment is classed as binding.
Sequence of recombinant human NK3 receptor (P29371 whole entry): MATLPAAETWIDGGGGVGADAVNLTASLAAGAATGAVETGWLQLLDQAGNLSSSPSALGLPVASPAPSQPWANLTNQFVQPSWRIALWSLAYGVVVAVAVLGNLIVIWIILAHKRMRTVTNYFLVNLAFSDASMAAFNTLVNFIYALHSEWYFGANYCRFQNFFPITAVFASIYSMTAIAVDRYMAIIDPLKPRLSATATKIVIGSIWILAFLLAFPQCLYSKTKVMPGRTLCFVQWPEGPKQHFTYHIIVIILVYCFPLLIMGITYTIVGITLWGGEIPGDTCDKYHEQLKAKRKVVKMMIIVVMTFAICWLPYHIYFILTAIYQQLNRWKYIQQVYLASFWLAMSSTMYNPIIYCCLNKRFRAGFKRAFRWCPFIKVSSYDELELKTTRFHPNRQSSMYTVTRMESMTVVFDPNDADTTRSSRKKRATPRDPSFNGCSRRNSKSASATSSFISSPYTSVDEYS
For `CCN(C(=O)Oc1ccc(F)cc1)[C@@H]1CN(C(=O)C2CCNCC2)C[C@H]1c1ccc(Cl)c(F)c1` [Example 56, [(3S,4R)-4-(4-Chloro-3-fluoro-phenyl)-1-(piperidine-4-carbonyl)-pyrrolidin-3-yl]-ethyl-carbamic acid 4-fluoro-phenyl ester], the Ki (in general, a dissociation constant, usually derived from enzyme kinetics or from competition with a known ligand) came to 267 nM. Still for that read-out and setting: for `CCN(C(=O)Oc1ccc(F)cc1)[C@@H]1CN(C(=O)C2CCN(c3ccc(C#N)nn3)CC2)C[C@H]1c1ccc(Cl)c(F)c1` [Example 57, {(3S,4R)-4-(4-Chloro-3-fluoro-phenyl)-1-[1-(6-cyano-pyridazin-3-yl)-piperidine-4-carbonyl]-pyrrolidin-3-yl}-ethyl-carbamic acid 4-fluoro-phenyl ester] the value was 0.7 nM; for `CCN(C(=O)Oc1ccc(F)cc1)[C@@H]1CN(C(=O)C2CCN(c3ccc(C#N)nn3)CC2)C[C@H]1c1ccc(F)c(F)c1` [Example 58, [(3S,4R)-1-[1-(6-Cyano-pyridazin-3-yl)-piperidine-4-carbonyl]-4-(3,4-difluoro-phenyl)-pyrrolidin-3-yl]-ethyl-carbamic acid 4-fluoro-phenyl ester], 5 nM; for `CCN(C(=O)Oc1ccc(F)cc1)[C@@H]1CN(C(=O)C2CCN(c3ccc(C(C)=O)cn3)CC2)C[C@H]1c1ccc(Cl)c(F)c1` [Example 59, [(3S,4R)-1-(5′-Acetyl-3,4,5,6-tetrahydro-2H-[1,2′]bipyridinyl-4-carbonyl)-4-(4-chloro-3-fluoro-phenyl)-pyrrolidin-3-yl]-ethyl-carbamic acid 4-fluoro-phenyl ester], 0.5 nM. Same read-out and setting: for `CCN(C(=O)Oc1ccc(F)cc1)[C@@H]1CN(C(=O)C2CCN(c3ccc(C(C)=O)cn3)CC2)C[C@H]1c1ccc(F)c(F)c1` [Example 60, [(3S,4R)-1-(5′-Acetyl-3,4,5,6-tetrahydro-2H-[1,2′]bipyridinyl-4-carbonyl)-4-(3,4-difluoro-phenyl)-pyrrolidin-3-yl]-ethyl-carbamic acid 4-fluoro-phenyl ester] the value was 4 nM. In the case of `CCN(C(=O)Oc1ccc(F)cc1)[C@@H]1CN(C(=O)C2CCN(c3cnc(C#N)cn3)CC2)C[C@H]1c1ccc(Cl)c(F)c1` [Example 61, {(3S,4R)-4-(4-Chloro-3-fluoro-phenyl)-1-[1-(5-cyano-pyrazin-2-yl)-piperidine-4-carbonyl]-pyrrolidin-3-yl}-ethyl-carbamic acid 4-fluoro-phenyl ester], the inhibition constant (Ki) came to 0.8 nM.

On to `CCN(C(=O)Oc1ccc(F)cc1)[C@@H]1CN(C(=O)C2CCN(c3cnc(C#N)cn3)CC2)C[C@H]1c1ccc(F)c(F)c1` [Example 62, [(3S,4R)-1-[1-(5-Cyano-pyrazin-2-yl)-piperidine-4-carbonyl]-4-(3,4-difluoro-phenyl)-pyrrolidin-3-yl]-ethyl-carbamic acid 4-fluoro-phenyl ester], for which the Ki was 6 nM. For the compound `CCN(C(=O)Oc1ccc(F)cc1)[C@@H]1CN(C(=O)C2CCN(c3ccc(S(C)(=O)=O)cn3)CC2)C[C@H]1c1ccc(Cl)c(F)c1` [Example 63, [(3S,4R)-4-(4-Chloro-3-fluoro-phenyl)-1-(5′-methanesulfonyl-3,4,5,6-tetrahydro-2H-[1,2′]bipyridinyl-4-carbonyl)-pyrrolidin-3-yl]-ethyl-carbamic acid 4-fluoro-phenyl ester], the Ki was determined as 0.7 nM. Regarding `CCN(C(=O)Oc1ccc(F)cc1)[C@@H]1CN(C(=O)C2CCN(c3ccc(S(C)(=O)=O)cn3)CC2)C[C@H]1c1ccc(F)c(F)c1` [Example 64, [(3S,4R)-4-(3,4-Difluoro-phenyl)-1-(5′-methanesulfonyl-3,4,5,6-tetrahydro-2H-[1,2′]bipyridinyl-4-carbonyl)-pyrrolidin-3-yl]-ethyl-carbamic acid 4-fluoro-phenyl ester], the inhibitory constant (Ki) is 5 nM. Regarding `CCN(C(=O)Oc1ccc(F)cc1)[C@@H]1CN(C(=O)C2CCN(C(=O)C3(C)COC3)CC2)C[C@H]1c1ccc(Cl)c(F)c1` [Example 65, {(3S,4R)-4-(4-Chloro-3-fluoro-phenyl)-1-[1-(3-methyl-oxetane-3-carbonyl)-piperidine-4-carbonyl]-pyrrolidin-3-yl}-ethyl-carbamic acid 4-fluoro-phenyl ester], the Ki came out at 3 nM. With `CCN(C(=O)Oc1ccc(F)cc1)[C@@H]1CN(C(=O)C2CCN(C(=O)C3CC(F)(F)C3)CC2)C[C@H]1c1ccc(Cl)c(F)c1` [Example 66, {(3S,4R)-4-(4-Chloro-3-fluoro-phenyl)-1-[1-(3,3-difluoro-cyclobutanecarbonyl)-piperidine-4-carbonyl]-pyrrolidin-3-yl}-ethyl-carbamic acid 4-fluoro-phenyl ester], the inhibitory constant (Ki) was 1 nM. For the compound `CCN(C(=O)Oc1ccc(F)cc1)[C@@H]1CN(C(=O)C2CCN(C(=O)C3CCC3)CC2)C[C@H]1c1ccc(Cl)c(F)c1` [Example 67, [(3S,4R)-4-(4-Chloro-3-fluoro-phenyl)-1-(1-cyclobutanecarbonyl-piperidine-4-carbonyl)-pyrrolidin-3-yl]-ethyl-carbamic acid 4-fluoro-phenyl ester], the Ki came to 2 nM. For the compound `CCN(C(=O)Oc1ccc(F)cc1)[C@@H]1CN(C(=O)C2CCN(C(=O)C3(C(F)(F)F)CCC3)CC2)C[C@H]1c1ccc(Cl)c(F)c1` [Example 68, {(3S,4R)-4-(4-Chloro-3-fluoro-phenyl)-1-[1-(1-trifluoromethyl-cyclobutanecarbonyl)-piperidine-4-carbonyl]-pyrrolidin-3-yl}-ethyl-carbamic acid 4-fluoro-phenyl ester], the Ki is 2 nM.

`CCN(C(=O)Oc1ccc(F)cc1)[C@@H]1CN(C(=O)C2CCN(C(=O)C3CC(F)C3)CC2)C[C@H]1c1ccc(Cl)c(F)c1` (stereo partly drawn) [Example 69, {(3S,4R)-4-(4-Chloro-3-fluoro-phenyl)-1-[1-(3-fluoro-cyclobutanecarbonyl)-piperidine-4-carbonyl]-pyrrolidin-3-yl}-ethyl-carbamic acid 4-fluoro-phenyl ester]: the inhibitory constant (Ki) came out at 2 nM. On to `CCN(C(=O)Oc1ccc(F)cc1)[C@@H]1CN(C(=O)C2CCN(C(=O)C3CC3(F)F)CC2)C[C@H]1c1ccc(Cl)c(F)c1` (stereo partly drawn) [Example 70, {(3S,4R)-4-(4-Chloro-3-fluoro-phenyl)-1-[1-(2,2-difluoro-cyclopropanecarbonyl)-piperidine-4-carbonyl]-pyrrolidin-3-yl}-ethyl-carbamic acid 4-fluoro-phenyl ester], for which the Ki was 4 nM. With `CCN(C(=O)Oc1ccc(F)cc1)[C@@H]1CN(C(=O)C2CCN(C(=O)c3ccc(C(F)(F)F)cn3)CC2)C[C@H]1c1ccc(Cl)c(F)c1` [Example 74, {(3S,4R)-4-(4-Chloro-3-fluoro-phenyl)-1-[1-(5-trifluoromethyl-pyridine-2-carbonyl)-piperidine-4-carbonyl]-pyrrolidin-3-yl}-ethyl-carbamic acid 4-fluoro-phenyl ester], the inhibition constant Ki amounted to 12 nM. Regarding `CCN(C(=O)Oc1ccc(F)cc1)[C@@H]1CN(C(=O)C2CCN(C(=O)c3ccc(F)cn3)CC2)C[C@H]1c1ccc(Cl)c(F)c1` [Example 75, {(3S,4R)-4-(4-Chloro-3-fluoro-phenyl)-1-[1-(5-fluoro-pyridine-2-carbonyl)-piperidine-4-carbonyl]-pyrrolidin-3-yl}-ethyl-carbamic acid 4-fluoro-phenyl ester], the Ki amounted to 3 nM.

For the compound `CCN(C(=O)Oc1ccc(F)cc1)[C@@H]1CN(C(=O)C2CCN(C(=O)c3ccc(C#N)cc3)CC2)C[C@H]1c1ccc(Cl)c(F)c1` [Example 76, {(3S,4R)-4-(4-Chloro-3-fluoro-phenyl)-1-[1-(4-cyano-benzoyl)-piperidine-4-carbonyl]-pyrrolidin-3-yl}-ethyl-carbamic acid 4-fluoro-phenyl ester], the Ki was found to be 17 nM. For `CCN(C(=O)Oc1ccc(F)cc1)[C@@H]1CN(C(=O)C2CCN(C(=O)c3cnc(C(F)(F)F)cn3)CC2)C[C@H]1c1ccc(Cl)c(F)c1` [Example 78, {(3S,4R)-4-(4-Chloro-3-fluoro-phenyl)-1-[1-(5-trifluoromethyl-pyrazine-2-carbonyl)-piperidine-4-carbonyl]-pyrrolidin-3-yl}-ethyl-carbamic acid 4-fluoro-phenyl ester], the Ki was 5 nM.

The same experiment, now with this note: read-out: Data Ki (hNK-3 receptor affinity).
Take `CCN(C(=O)Oc1ccc(F)cc1)[C@@H]1CN(C(=O)C2CCN(c3ccc(C)cn3)CC2)C[C@H]1c1ccc(F)c(F)c1` [Example 55, [(3S,4R)-4-(3,4-Difluoro-phenyl)-1-(5′-methyl-3,4,5,6-tetrahydro-2H-[1,2′]bipyridinyl-4-carbonyl)-pyrrolidin-3-yl]-ethyl-carbamic acid 4-fluoro-phenyl ester]: the Ki came out at 9 nM. Same read-out and setting: for `CCN(C(=O)Oc1ccc(F)cc1)[C@@H]1CN(C(=O)C2CCN(C(=O)C3(C(F)(F)F)CC3)CC2)C[C@H]1c1ccc(Cl)c(F)c1` [Example 71, {(3S,4R)-4-(4-Chloro-3-fluoro-phenyl)-1-[1-(1-trifluoromethyl-cyclopropanecarbonyl)-piperidine-4-carbonyl]-pyrrolidin-3-yl}-ethyl-carbamic acid 4-fluoro-phenyl ester] the value was 4 nM. For `CCN(C(=O)Oc1ccc(F)cc1)[C@@H]1CN(C(=O)C2CCN(C(=O)C3(C#N)CC3)CC2)C[C@H]1c1ccc(Cl)c(F)c1` [Example 72, {(3S,4R)-4-(4-Chloro-3-fluoro-phenyl)-1-[1-(1-cyano-cyclopropanecarbonyl)-piperidine-4-carbonyl]-pyrrolidin-3-yl}-ethyl-carbamic acid 4-fluoro-phenyl ester], the inhibitory constant (Ki) stood at 2 nM.

With `CCN(C(=O)Oc1ccc(F)cc1)[C@@H]1CN(C(=O)C2CCN(C(=O)C3CCOC(C)(C)C3)CC2)C[C@H]1c1ccc(Cl)c(F)c1` (stereo partly drawn) [Example 73, {(3S,4R)-4-(4-Chloro-3-fluoro-phenyl)-1-[1-(2,2-dimethyl-tetrahydro-pyran-4-carbonyl)-piperidine-4-carbonyl]-pyrrolidin-3-yl}-ethyl-carbamic acid 4-fluoro-phenyl ester], the Ki was determined as 3 nM. For the compound `CCN(C(=O)Oc1ccc(F)cc1)[C@@H]1CN(C(=O)C2CCN(C(=O)c3ccc(F)cc3)CC2)C[C@H]1c1ccc(Cl)c(F)c1` [Example 77, {(3S,4R)-4-(4-Chloro-3-fluoro-phenyl)-1-[1-(4-fluoro-benzoyl)-piperidine-4-carbonyl]-pyrrolidin-3-yl}-ethyl-carbamic acid 4-fluoro-phenyl ester], the Ki was determined as 4 nM.
